Measured values published in US5968801A, “Polyhydroxyalkanoate depolymerase and process for producing the same” (Taisei Corporation, priority 1997, dated 1999).

Target: PHA depolymerase
Format: biochemical, Corynebacterium aquaticum IM-1
Settings: pH 6.5; read-out: IC50 (concentration of inhibitor at which the enzyme activity was inhibited by 50%)

SMILES | IC50 [mM]
O[C@H](CS)[C@H](O)CS (racemic) [DTT, dithiothreitol] | 73
O=S(=O)(F)Cc1ccccc1 [PMSF, Phenylmethylsulfonyl fluoride] | 1.92
